The values that follow come from patent US5055613A, “Metabolites of pentanedioic acid derivatives” (G. D. Searle & Co., priority 1988, dated 1991).

The subject of assay [1] is fed hepatocytes. The assay can be described thus: Fatty acid and cholesterol synthesis in isolated fed hepatocytes. The conditions noted are these: 0.5 mM; for Cholesterol Synthesis: No Addition 0.013 ± 0.002; for Fatty Acid Synthesis: No Addition 0.024 ± 0.004. Type of assay: cell-based, rat. As to the method: (§1) Hepatocytes are prepared from ad lib fed rats or 8-hour fasted rats by the method of Berry and Friend (1969) with minor modifications (McCune and Harris, 1979 J. Biol. Chem. 254,10095-10101.) Lean female rats (200-300 g) are ad lib fed and on a 8:00 a.m.-8:00 p.m. light cycle. The cells are isolated between 9:00-10:00 a.m., to compensate for any diurnal rhythms such as glycogen depletion.
(§2) The cells are suspended in 2 mls of Krebs-Henseleit buffer supplemented with 2% BSA (essentially fatty acid free and dialyzed) under an atmosphere of 95% O2, 5% CO2 in stoppered 25 ml Erlenmeyer flasks. Incubations were conducted in a shaking water bath at 37° C. for appropriate times. Cells for fatty acid and cholesterol synthesis were treated with […] of H2 O(10mCi/ml) after 30 minutes of pre-incubation and stopped at 60 minutes.
Determination of cholesterol and fatty acid synthesis: The rate of fatty acid synthesis and cholesterol synthesis, expressed as moles of acetate equivalents/g wet weight of hepatocytes are determined by the incorporation of H2 O into total lipid, and extracted by the methods of Kates (1972 Tech. of Lipidology, 349, 363) and Harris (1975 Arch. Biochem. Biophys. 169, 168-180). Calculations are done according to Jungas (1968 Biochemistry 7, 3708-3717).
(§3) Various compounds of the present invention were added to various concentrations to the hepatocytes and incubated for a short period of time. The effect of the compound was evaluated on cholesterol, fatty acid and glucose synthesis as well on other metabolites in the cell.

In assay [2] the test system is fed hepatocytes. Kind of assay: Glucose release, lactate and pyruvate (metabolites) in isolated fed hepatocytes. It counts as cell-based, rat. Particulars: 0.5 mM; for Pyruvate: No Addition 0.186 ± 0.040; for Lactate: No Addition 0.317 ± 0.095. As to the method:
as §1, §2
Assay of metabolites: Cells are terminated with HClO4 (0.1 ml of 60%) and treated as described previously; McCune et al., 1981 Methods of Enzymology 72, 557-559). The metabolites in the extracts are measured spectrophotometrically by enzymatic methods, according to the methods of Hohorst et al. (1959 Biochem. Z., 332,18-46) for pyruvate and lactate, Williamson et al. (1962) for acetoacetate and beta-hydroxybutyrate, Slein (1965) for glucose, Michal and Bergmeyer (1974) for acetyl-CoA, McCune, et al. (ibid) for glycogen, Mollering and Gruber (1966 Anal. Biochem. 17, 369-379) for citrate, and Lambrecht and Trautschold (1974 Methods of Enzymatic Analysis, 2101 2109) for ATP.
as §3

With `COC(=O)C(C)(C)CCCCCCCCCCCC(O)(CC(=O)O)CC(=O)O` [Example 10, 3-(12-Carbomethoxy-12-methyl-tridecyl)-3-hydroxy glutaric acid], in the assay on fed hepatocytes [1], the “Cholesterol Synthesis” value came out at 0.003 ± 0.001 mmoles/min/gm wet weight and the “Fatty Acid Synthesis” value is 0.003 ± 0.001 mmoles/min/gm wet weight. In addition, in the assay with fed hepatocytes [2], the Pyruvate is given as 0.220 ± 0.031 mmoles/ml incubation medium and the Lactate was 0.477 ± 0.084 mmoles/ml incubation medium.
Take `CC(C)(CO)CCCCCCCCCCCC(O)(CC(=O)O)CC(=O)O` [Example 14, 3-(13-Hydroxy-12,12-dimethyl-tridecyl)-3-hydroxy glutaric acid]: in the assay with fed hepatocytes [1], the “Cholesterol Synthesis” value is 0.004 ± 0.001 mmoles/min/gm wet weight and the “Fatty Acid Synthesis” value came to 0.003 ± 0.001 mmoles/min/gm wet weight. Besides, in the assay on fed hepatocytes [2], the Pyruvate is reported as 0.185 ± 0.042 mmoles/ml incubation medium and the Lactate is on record as 0.400 ± 0.091 mmoles/ml incubation medium.
For `CC(C)(C)CCCCCCCCCCCC(O)(CC(=O)O)CC(=O)O` [Prior Art Compound, 3hydroxy-3-[12,12dimethyltridecyl]glutaric acid, reference compound] the same measures were 0.010 ± 0.002 mmoles/min/gm wet weight, 0.010 ± 0.002 mmoles/min/gm wet weight, 0.110 ± 0.013 mmoles/ml incubation medium and 0.383 ± 0.085 mmoles/ml incubation medium.
As for `CC(C)(CCCCCCCCCCCC(O)(CC(=O)O)CC(=O)O)C(=O)O` [Example 11, 3-(12-Carboxy-12-methyl-tridecyl)-3-hydroxy glutaric acid], in the assay on fed hepatocytes [1], the “Cholesterol Synthesis” value is recorded as 0.002 ± 0.001 mmoles/min/gm wet weight and the “Fatty Acid Synthesis” value is given as 0.003 ± 0.001 mmoles/min/gm wet weight. For the same compound, in the assay on fed hepatocytes [2], the Pyruvate is 0.202 ± 0.028 mmoles/ml incubation medium and the Lactate is on record as 0.437 ± 0.104 mmoles/ml incubation medium.
